Measurements from patent publication US20250177426A1, “METHODS AND COMPOSITIONS FOR TREATING DEMENTIA” (Cognitive Synergy Corporation, priority 2023, published 2025).
“And” between values parts separate entries of the source, which are not always exact repeats. Equal entries are not always repeated.

Columns and labels:
[1] = biological target: T1, Aβ protein (Homo sapiens, UniProt P05067); assay: Aβ fibrillization, percent of control; type: biochemical; settings: for Aβ fibrillization as compared to control: FIG. 7; for Aβ fibrillization as compared to the control: FIG. 12; for fibrillization of Aβ protein: FIG. 9, control = 100
T1 construct: The bar graph 700 includes a control sample with 10 μM Aβ protein
T1 sequence (P05067 672-711 limits assumed): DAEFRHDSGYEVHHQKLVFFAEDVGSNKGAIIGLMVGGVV
Protocol: Referring to FIG. 7, FIG. 7 is a bar graph 700 showing a percentage of Aβ fibrillization as compared to a control for neoliquiritin, sebiricose A5, (Z)SA glycoside, and (E)SA glycoside. The bar graph 700 includes a control sample with 10 μM Aβ protein. The amount of Aβ fibrillization in the control sample is normalized to 100%. All other samples in the bar graph 700 include 10 μM Aβ protein and another compound at a concentration of 100 μM.
Referring to FIG. 8, FIG. 8 is a bar graph 800 showing a percentage of Aβ fibrillization as compared to a control for neoliquiritin samples of various concentrations. The amount of Aβ fibrillization in the control sample is normalized to 100%. All other samples in the bar graph 800 include 10 μM Aβ protein and a variable concentration of neoliquiritin.
Referring to FIG. 9, FIG. 9 is a bar graph 900 showing a percentage of Aβ fibrillization as compared to a control for neoliquiritin and liquiritigenin samples of various concentrations. Like the other bar graphs, the control sample is on the left side of the bar graph 900. The control sample comprises 10 μM Aβ protein and the percent fibrillization of Aβ protein in the control sample is normalized to 100. All other samples, which contain either neoliquiritin or liquiritigenin, also include a concentration of 10 μM Aβ protein.
Referring to FIG. 12, FIG. 12 is a bar graph 1200 showing a percentage of Aβ fibrillization as compared to a control for sinapic acid, trans-sinapic acid, and sinapic acid O-glucoside at various concentrations. On the left side of the bar graph 1200, a control sample comprising 10 μM Aβ protein has a fibrillization measurement normalized to 100. All other samples include the same concentration of 10 μM Aβ protein as a control sample.

[2] = test system: SH-SY5Y cells; assay: Survival of SH-SY5Y cells in solutions of Aβ; type: cell-based; settings: FIG. 11, Aβ-only control 69%
Protocol: Referring to FIG. 10, FIG. 10 is a bar graph 1000 showing a percentage of survival of SH-SY5Y cells in solutions of Aβ and various concentrations of neoliquiritin. […] All the samples in the bar graph 1000 comprised the same concentration of 10 μM Aβ protein as the control sample as well as a variable concentration of neoliquiritin.
Referring to FIG. 11, FIG. 11 is a bar graph 1100 showing a percentage of survival of SH-SY5Y cells in solutions of neoliquiritin, isoliquiritigenin, isoliquiritin, sinapic acid O-glucoside, trans-sinapic acid, and liquiritigenin at various concentrations. […] The other samples in the bar graph 1100 all contain the same concentration of 10 μM Aβ protein as a control sample.

[3] = biological target: T2, Aβ fibrils (Homo sapiens, UniProt P05067); assay: Relative fluorescence of prefibrillated Aβ after timed treatment; type: biochemical; settings: FIG. 14, 50 μM compound
T2 construct: The bar graph 700 includes a control sample with 10 μM Aβ protein
T2 sequence (P05067 672-711 limits assumed): as above
Description: Control samples containing only Aβ protein as starting material are unshaded. Other samples containing Aβ protein and an additional compound have shading according to the legend on the bottom of the bar graphs 1400.

[4] = 10 μM Aβ protein and 100 μM compound
[5] = 10 μM Aβ protein and 100 nM compound
[6] = 10 μM Aβ protein and 1 μM compound
[7] = 10 μM Aβ protein and 10 μM compound

With COc1cc(/C=C/C(=O)O)cc(OC)c1O[C@@H]1O[C@H](O)[C@@H](O)[C@H](O)[C@H]1O [(E)SA glycoside] the “Aβ fibrillization as compared to control” value [1, 4] was 51%.
With COc1cc(/C=C/C(=O)O)cc(OC)c1O [SA, sinapic acid, reference compound] the “Aβ fibrillization as compared to the control” value [1, 5] was 105%, the “Aβ fibrillization as compared to the control” value [1, 6] was 101% and the “Aβ fibrillization as compared to the control” value [1, 7] was 114%. The “Aβ fibrillization as compared to the control” value [1, 4] was 85%.
For COc1cc(/C=C/C(=O)O)cc(OC)c1O [T-SA, trans-sinapic acid, reference compound], the “Aβ fibrillization as compared to the control” value [1, 5] was 98%, the “Aβ fibrillization as compared to the control” value [1, 6] was 95% and the “Aβ fibrillization as compared to the control” value [1, 7] was 89%. The “Aβ fibrillization as compared to the control” value [1, 4] was 79%, the “survival for the SH-SY5Y cells” value [2, 6] was 76% and the “survival for the SH-SY5Y cells” value [2, 7] was 77%. For the same compound, the “Relative fluorescence for Aβ fibrils” value ([3]; 46.5 hours, Aβ only approximately 900000) was “approximately 850000 RFU”, the “Relative fluorescence for Aβ fibrils” value ([3]; 48 hours, Aβ only approximately 1070000) was “approximately 940000 RFU” and the “Relative fluorescence for Aβ fibrils” value ([3]; 60 hours, Aβ only approximately 1010000) was “approximately 940000 RFU”. For the same compound, the “Relative fluorescence for Aβ fibrils” value ([3]; 72 hours, Aβ only approximately 980000) was “approximately 770000 RFU”.
For O=C(/C=C/c1ccc(O)cc1)c1ccc(O)cc1O [isoliquiritigenin], the “survival for the SH-SY5Y cells” value [2, 6] was 84% and the “survival for the SH-SY5Y cells” value [2, 7] was 81%.
With O=C(/C=C/c1ccc(O[C@@H]2O[C@H](CO)[C@@H](O)[C@H](O)[C@H]2O)cc1)c1ccc(O)cc1O [isoliquiritin] the “survival for the SH-SY5Y cells” value [2, 6] was 72% and the “survival for the SH-SY5Y cells” value [2, 7] was 74%.
In the case of O=C1C[C@@H](c2ccc(O)cc2)Oc2cc(O)ccc21 [liquiritigenin, reference compound], the “fibrillization of Aβ protein” value ([1]; 100 nM compound and 10 μM Aβ protein) is reported as 94%, the “fibrillization of Aβ protein” value ([1]; 10 μM compound and 10 μM Aβ protein) is reported as 92% and 90% and the “fibrillization of Aβ protein” value ([1]; 50 μM compound and 10 μM Aβ protein) is reported as 97%. For the same compound, the “fibrillization of Aβ protein” value ([1]; 100 μM compound and 10 μM Aβ protein) was 83%, the “survival for the SH-SY5Y cells” value [2, 6] was 67% and the “survival for the SH-SY5Y cells” value [2, 7] was 67%.
With Sebiricose A5 [reference compound] the “Aβ fibrillization as compared to control” value [1, 4] was 86%.
